Numbers after ± are expanded uncertainties.
Assays:
[1] = 101 kPa, Liquid; for mass density: Pycnometric method; for speed of sound: Pulse-echo method
[2] = molar heat capacity at constant pressure; settings: 101.33 kPa, Liquid, Small sample (50 mg) DSC
[3] = refractive index (Na D-line) (dimensionless); settings: 298.15 K; 101.33 kPa; Liquid; Standard Abbe refractometry
[4] = xn = mol fraction of the nth substance listed; settings: 101 kPa, Liquid; for mass density: Pycnometric method; for speed of sound: Pulse-echo method

CCC(O)CO (stereo not drawn) [1,2-butanediol]
Settings	mass density, [1] [kg/m3]	molar heat capacity at constant pressure, [2] [J/K/mol]	speed of sound, [1] [m/s]
283.15 K	–	222.86 ± 9.5	–
288.15 K	–	225.62 ± 9.6	–
293.15 K	1002.32 ± 0.57	228.35 ± 9.7	–
298.15 K	998.59 ± 0.58	231.06 ± 9.8	1449.9 ± 1.6
303.15 K	994.78 ± 0.59	233.74 ± 9.9	–
308.15 K	990.97 ± 0.6	236.4 ± 10	–
313.15 K	–	239.05 ± 10	–
318.15 K	–	241.66 ± 10	–

Settings	refractive index
[3]	1.4364 ± 0.0008

CCC(O)CO (stereo not drawn) [1,2-butanediol] + CCCCO
[4]
Settings	mass density, 293.15 K [kg/m3]	mass density, 298.15 K [kg/m3]	mass density, 303.15 K [kg/m3]	mass density, 308.15 K [kg/m3]	speed of sound, 298.15 K [m/s]
x1 = 0.05027	819.25 ± 0.3	815.37 ± 0.31	811.5 ± 0.32	807.63 ± 0.33	1248.1 ± 1.4
x1 = 0.1001	828.73 ± 0.31	824.84 ± 0.32	820.98 ± 0.33	817.06 ± 0.34	1256.3 ± 1.4
x1 = 0.1501	838.28 ± 0.32	834.4 ± 0.33	830.49 ± 0.34	826.61 ± 0.35	1264.1 ± 1.4
x1 = 0.3	867.03 ± 0.35	863.1 ± 0.36	859.21 ± 0.37	855.24 ± 0.38	1289.6 ± 1.4
x1 = 0.4004	886.32 ± 0.37	882.4 ± 0.38	878.47 ± 0.39	874.54 ± 0.41	1307.8 ± 1.4
x1 = 0.4994	905.4 ± 0.4	901.47 ± 0.41	897.58 ± 0.42	893.65 ± 0.43	1327.2 ± 1.5
x1 = 0.6002	924.85 ± 0.42	920.95 ± 0.44	917.07 ± 0.45	913.17 ± 0.46	1348.3 ± 1.5
x1 = 0.7001	944.16 ± 0.46	940.28 ± 0.47	936.42 ± 0.48	932.51 ± 0.49	1371.1 ± 1.5
x1 = 0.85	973.21 ± 0.51	969.42 ± 0.52	965.57 ± 0.53	961.69 ± 0.54	1408.2 ± 1.6
x1 = 0.8998	982.93 ± 0.53	979.12 ± 0.54	975.25 ± 0.55	971.41 ± 0.56	1421.8 ± 1.6
x1 = 0.9498	992.62 ± 0.55	988.87 ± 0.56	985.02 ± 0.57	981.19 ± 0.58	1435.5 ± 1.6
x1 = 1	1002.32 ± 0.57	998.59 ± 0.58	994.78 ± 0.59	990.97 ± 0.6	1449.9 ± 1.6

CCCCO [butan-1-ol]
Settings	mass density, [1] [kg/m3]	molar heat capacity at constant pressure, [2] [J/K/mol]	speed of sound, [1] [m/s]
283.15 K	–	167.32 ± 7.1	–
288.15 K	–	170.35 ± 7.2	–
293.15 K	809.65 ± 0.29	173.54 ± 7.4	–
298.15 K	805.81 ± 0.3	176.9 ± 7.5	1240.2 ± 1.4
303.15 K	801.98 ± 0.31	180.41 ± 7.7	–
308.15 K	798.13 ± 0.32	184.09 ± 7.8	–
313.15 K	–	187.93 ± 8	–
318.15 K	–	191.93 ± 8.1	–

Settings	refractive index
[3]	1.3972 ± 0.0008

CCCCO [butan-1-ol] + CCC(O)CO
[4], x2 = 0
Settings	mass density [kg/m3]	speed of sound [m/s]
293.15 K	809.65 ± 0.29	–
298.15 K	805.81 ± 0.3	1240.2 ± 1.4
303.15 K	801.98 ± 0.31	–
308.15 K	798.13 ± 0.32	–
